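Briefly, cells in 96-well plates were exposed to five compound concentrations for 48 h, and endpoints were estimated by linear interpolation. At the TGI there is no net growth.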
Columns and labels:
Experiment in all cases: growth of human tumour cells (NCI), 48 h
NCI-H460 lung = test system: NCI-H460 lung
MOLT-4 leukemia = test system: MOLT-4 leukemia
IGROV1 ovarian = test system: IGROV1 ovarian
SF-539 CNS = test system: SF-539 CNS
NCI-H226 lung = test system: NCI-H226 lung
EKVX NSCLC = test system: EKVX NSCLC
PC-3 prostate = test system: PC-3 prostate
SN12C renal = test system: SN12C renal
UACC-62 melanoma = test system: UACC-62 melanoma
SF-295 CNS = test system: SF-295 CNS
ACHN renal = test system: ACHN renal
DU-145 prostate = test system: DU-145 prostate
OVCAR-4 ovarian = test system: OVCAR-4 ovarian
HS 578T breast = test system: HS 578T breast
SF-268 CNS = test system: SF-268 CNS
OVCAR-5 ovarian = test system: OVCAR-5 ovarian
COLO 205 colon = test system: COLO 205 colon
SNB-75 CNS = test system: SNB-75 CNS
T-47D breast = test system: T-47D breast
RXF 393 renal = test system: RXF 393 renal

| SMILES | TGI (NCI-H460 lung) [µM] | TGI (MOLT-4 leukemia) [µM] | TGI (IGROV1 ovarian) [µM] | TGI (SF-539 CNS) [µM] | TGI (NCI-H226 lung) [µM] | TGI (EKVX NSCLC) [µM] | TGI (PC-3 prostate) [µM] | TGI (SN12C renal) [µM] | TGI (UACC-62 melanoma) [µM] | TGI (SF-295 CNS) [µM] | TGI (ACHN renal) [µM] | TGI (DU-145 prostate) [µM] | TGI (OVCAR-4 ovarian) [µM] | TGI (HS 578T breast) [µM] | TGI (SF-268 CNS) [µM] | TGI (OVCAR-5 ovarian) [µM] | TGI (COLO 205 colon) [µM] | TGI (SNB-75 CNS) [µM] | TGI (T-47D breast) [µM] | TGI (RXF 393 renal) [µM] |
| --- | --- | --- | --- | --- | --- | --- | --- | --- | --- | --- | --- | --- | --- | --- | --- | --- | --- | --- | --- | --- |
| COc1cccc(/C=C2\CCCc3ccccc3C2=O)c1 | 34.2 | > 100 | 46.3 | 32 | 49.3 | 50.2 | 38.6 | 33 | 25.8 | 30.7 | > 100 | 60 | 28.5 | 41.4 | 23 | 38 | 35.6 | > 100 |  |  |
| COc1ccc(P2(=S)Oc3ccccc3-c3ccccc3O2)cc1 | > 100 | > 100 | > 100 | 0.537 | > 100 | > 100 |  |  | > 100 | > 100 | > 100 | > 100 | > 100 | > 100 | > 100 | > 100 | 2.77 | > 100 | > 100 |  |
| COc1cccc2c1CCc1cc3c(N)nc(N)nc3nc1-2 | 25 | > 100 | 17.2 | 9.16 | 43.2 | 15.3 | 18.3 | 28.1 | 16.7 | 9.91 | 36.5 | 23.8 | 32.5 |  | 42.4 | 21.3 | 29.8 | 34.9 | > 67.7 | 26.4 |
| CC[C@H](Nc1c(O)c2c(c(O)c1Cl)C(=O)C=CC2=O)C(=O)OC | > 10 | 9.57 | > 10 | 9.29 | > 10 | > 10 | > 10 | 9.16 | > 10 | > 10 | > 10 | > 10 | > 10 | > 10 | > 10 | > 10 | > 10 | > 10 |  |  |
| C/C=C1\C=C(OC)CN(CCc2c[nH]c3ccccc23)C1 | > 100 | > 100 | > 100 | > 100 | > 100 | > 100 |  | > 100 | > 100 | > 100 | > 100 |  | > 100 |  | 95.5 |  | > 100 | > 100 |  |  |
| Nc1c2ccccc2nc2ccc3c(=O)cc(-c4ccccc4)oc3c12 | 2.22 |  |  | 2.34 | 2.56 | 2.8 | 2.7 |  |  |  | 2.39 | 3.74 | 1.1 |  |  | 2.85 | 1.35 | 3.58 |  | 2.91 |
| Cc1n[nH]c(=O)n1/N=C/c1ccc(F)cc1 | > 100 | > 100 |  | > 100 |  | > 100 |  | > 100 | > 100 | > 100 | > 100 | > 100 | > 100 |  | > 100 | > 100 | > 100 | > 100 | > 100 | > 100 |
| Nc1nc(N)c2cc(-c3ccccc3)cnc2n1 | 24.3 | 28.3 | 26.8 | 31.1 | 33.1 | 45.1 | 20.6 | 29.1 |  | 33 | 26.3 |  | 35.2 | 46.2 | 8.78 | 27.7 | 27.3 | 17.3 | > 100 | 22.5 |
| CC(=O)[C@@H]1C/C(=C\OCc2ccccc2)O[C@H]1C | > 100 | > 100 | > 100 | > 100 | > 100 | > 100 |  | > 100 |  | > 100 | > 100 | > 100 | > 100 |  | > 100 | > 100 | > 100 | > 100 | > 100 | > 100 |
| CCO/C=N\c1c(C#N)c(-c2ccc(Cl)cc2)cn1-c1ccc(C)cc1 | > 100 |  | > 100 | > 100 | > 100 | > 100 | > 100 | > 100 | > 100 | > 100 | > 100 | > 100 | > 100 | > 100 | > 100 | > 100 | > 100 | > 100 |  | > 100 |
| Cc1ccc(N2C(=O)C=C(C3=C(O)C(=O)N(c4ccc(C)cc4)C3=O)C2=O)cc1 | > 100 | > 100 | > 100 |  | > 100 | > 100 | > 100 | > 100 | > 100 | > 100 | > 100 | > 100 | > 100 |  | > 100 | > 100 | > 100 | > 100 | > 100 |  |
| Cn1c(=O)n2n(c1=O)C(S(=O)(=O)c1ccccc1)C2 (configuration not stated) | > 100 | > 100 | > 100 | > 100 |  | > 100 | > 100 | > 100 | > 100 | > 100 | > 100 | > 100 | > 100 | > 100 | > 100 | > 100 | > 100 | > 100 |  | > 100 |
| Cc1nc(C(N)=S)sc1C(=O)CC(=O)C(=O)Nc1ccccc1[N+](=O)[O-] | > 100 | > 100 | > 100 | > 100 |  | > 100 |  |  | > 100 | > 100 | > 100 |  | > 100 |  | > 100 | > 100 |  | > 100 |  | > 100 |
| Clc1nssc1=Nc1nonc1-c1ccccc1 | > 100 | 69.8 | 82 | 66.1 | > 100 | > 100 | > 100 | 42.4 | > 100 | > 100 | 36.1 | 53.5 | > 100 |  |  | 49.3 | 36.7 | 64.2 |  | 59.6 |

Source: PubChem BioAssay (NCI)
